One data set has as its system zebrafish larvae. Kind of data set: Endocytosis inhibitor treatment of zebrafish, motor axon phenotype. The format is in vivo. Here is the method:
The in vivo effect of inhibition of endocytosis on MN outgrowth was investigated by the use of the pharmacological inhibitors Pitstop2 and Dynasore (both Abcam) in the SMA zebrafish model. Motor axons of treated zebrafish larvae were analyzed by fluorescence microscopy. For immunohistochemistry, zebrafish were manually dechorionated and fixed in 4% PFA-PBS at 34 hours post fertilization. To permeabilize the larvae for the following antibody staining, collagenase digest of the whole animal was performed. To visualize the primary motor axons, fish were incubated at 4° C. over night in 500 μl PBS-T/1% DMSO/10% FCS containing znp-1 antibody (1:300, Hybridoma Bank). Fish were stained in PBS-T/1% DMSO/10% FCS containing secondary donkey anti-mouse antibody labelled with Alexafluor 488 (1:200, Invitrogen) after all-day washing in PBS-T/1% FCS/1% BSA (changing solution every hour). After repeated washing in PBS-T and PBS, fish were stored in 80% glycerol/20% PBS in the dark at 4° C. Labelled fish were embedded in low-melting agarose micro slides and analysed using a fluorescence microscope (AxioImager M2, Zeiss). The structure of each of the first ten motor axons posterior to the yolk was analysed, rated as: 1) normal, 2) truncated (truncation ventral from midline), 3) severely truncated (shorter than midline), 4) branched I (branching ventral from midline), 5) branched II (branching at midline), or 6) branched BI (branching dorsal from midline) and statistically evaluated using Excel (Microsoft). Dynasore (dynamin inhibitor) and Pitstop2 (clathrin inhibitor) (both Abcam) were dissolved as stock solution (50 mM) in DMSO and stored at −20° C. Zebrafish were treated with the respective concentrations starting at 16 hpf. To do so, fish were dechorionated and substance was added to the embryo medium. Fish larvae were incubated at 28° C. in an incubator on a rocking platform (20 rpm) until fixed in PBS-PFA at 34 hpf. Subsequently fish were stained with znp-1 antibody, as described above.

A further data set deals with NSC34 cells. In words: FITC-dextran endocytosis assay of NSC34 cells treated with Ionomycin. The format is cell-based, mouse. The settings on record: presence vs absence of Ionomycin, n=50. Here is the method:
To unravel differences in endocytosis performance, cells (fibroblasts and NSC34) were starved and subsequently incubated with FITC-dextran. FITC-uptake after respective incubation times was quantified either by microscopic analysis or by FACS.
One day before the measurement, some 15,000 fibroblasts per well (4-well EZ slides, Millipore) were plated out in 500 μl normal DMEM growth medium (Invitrogen). Cells were starved for 10 minutes in starvation media (DMEM transparent (HEPES), 2% FKS) at 37° C. For endocytosis, cells were treated with FITC dextran solution (5 mg/ml FITC-dextran in starvation medium) for respective time period at 37° C. Subsequently, medium was removed and cells were washed three times with ice-cold PBS on ice and fixed in 4% paraformaldehyde for ten minutes. After subsequent washing (2 times in PBS) cells were stained with Alexafluor 568 phalloidin (Invitrogen, 2 hours at 4° C.). Then, after washing cells were stained with DAPI and mounted with Mowiol (Sigma). Finally, FITC fluorescence was monitored at the fluorescence microscope (Axiolmager M2, Zeiss) and quantified using the Zen software (Zeiss) and evaluated with Excel (Microsoft).

In a further data set the test system is Ncald. Kind of data set: Knockdown efficiency of shRNA constructs in NSC34 cells (qRT-PCR of Ncald levels). The format is cell-based, mouse. The settings on record: transient transfection of NSC34 cells, 72 h. How it is done: Before starting the cloning of the targeting construct for the mouse generation, we constructed and tested five individual shRNA elements targeting the Ncald gene. To do so, we transiently transfected five different shRNA-Ncald constructs in murine NSC34 cells and analysed the knockdown efficiency after 72 h. […] For further testing, we cloned selected shRNA sequences into the vector pEx-H1tetO-CAG-tetR carrying all necessary elements of the tetO/R system which allow later induction of the shRNA-expression by administration of doxycycline (Dox) (Kleinhammer et al. 2011). Currently, after we could verify the dox-inducible capability of two shRNA constructs to knockdown Ncald, we are producing stable murine embryonic cell lines (ES cells) to subsequently generate two individual transgenic mouse strains containing inducible Ncald knockdown vectors. These mice will later be crossed on SMA background to investigate the protective ability of Ncald downregulation.
The knockdown efficiency of five individual shRNA sequences was tested by qRT-PCR-based quantification of Ncald levels, 72 h after knockdown using different shRNA sequences. Transient transfection of NSC34 cells. The respective sequences are those of SEQ ID NO: 15-19 as shown above.

“Also recorded” adds a separate entry of the source.

In the case of `O=C(N/N=C/c1ccc(O)c(O)c1)c1cc2ccccc2cc1O` [Dynasore], in the data set with zebrafish larvae (Dynasore alone or in combination with low smn MO), the “Motor axon truncation, inhibitor alone or with low smn MO” value is given as “SMA-like axonal truncations”.

`C[C@H](CCC(=O)O)C[C@H](C)C[C@H](C)C(=O)/C=C(\O)[C@H](C)C[C@H](C)C/C=C/[C@@H](C)[C@@H](O)[C@@H](C)[C@@H](O)C[C@@H]1CC[C@@](C)([C@H]2CC[C@@](C)([C@@H](C)O)O2)O1` [Ionomycin]: the “Endocytosis (FITC-dextran)” value with NSC34 cells is listed as “significant increase in endocytosis; also recorded: significantly increased endocytosis”.

For the compound `O=C1NC(=NS(=O)(=O)c2cccc3ccccc23)S/C1=C\c1ccc(Br)cc1` [Pitstop2], the “Motor axon truncation, inhibitor in combination with smn MO” value in the data set on zebrafish larvae (subphenotypical smn MO (2 ng) plus Pitstop2) was “significant elevation in the number of truncated motor axons”; with zebrafish larvae (subphenotypical smn MO (2 ng) plus Pitstop2, listed as Pitstop) it was “synergistic effect”.

Turning to “shRNA #4: shRNA knocking down mouse NCALD, one of five of SEQ ID NO: 15-19 (DNA CCGGCGCCAGATGGATACCAATAGACTGGAGTCTATTGGTATCCATCTGGCGTTTTTG)”, the “Knockdown efficacy of Ncald” value in the data set with Ncald is reported as “sufficient knockdown efficacy”.

Regarding “shRNA #5: shRNA knocking down mouse NCALD, one of five of SEQ ID NO: 15-19 (DNA CCGGGCTTCCAAATTTGCAGAGCATCTGGAGATGCTCTGCAAATTTGGAAGCTTTTTG)”, in the data set on Ncald, the “Knockdown efficacy of Ncald” value was “sufficient knockdown efficacy”.
